Experimental data as given in US11673323B2, “Fluorescent binders for use in monitoring additive manufacturing processes” (General Electric Company, priority 2020, dated 2023).
“Also recorded” adds a separate entry of the source.

Assay: Solubility of neat fluorescent dye in water-based PVA/PAA binder solution
Details: 0.5 wt % fluorescent dye in binder solution (PVA, PAA, ethylene glycol, ethylene glycol butyl ether, water), stirred at 50-70° C.
Method: To determine whether neat dyes (e.g., unencapsulated) could be incorporated into binder solutions, various fluorescent materials were added to a binder solution including 1-7 wt % PVA, 0.5-3 wt % PAA, 2-6 wt % ethylene glycol, 4-10 wt % ethylene glycol butyl ether, and the balance water to form Samples F-H, and Comparative Samples 1-5. In particular, from 0.2-0.5 wt % of the fluorescent material (DayGlo, UMCCorp, Aldrich) was added to the binder solution and stirred on a hot plate at 50-70° C. to dissolve the dye into the binder solution.

Compound | Solubility at 0.5 wt % | Solubility at 0.5 wt % (listed as Sample H)
CCCN(CCO)c1nc(Nc2ccccc2)nc(Nc2ccc(/C=C/c3ccc(Nc4nc(Nc5ccccc5)nc(N(CCO)CCO)n4)cc3S(=O)(=O)[O-])c(S(=O)(=O)[O-])c2)n1.[Na+].[Na+] [FB 28] | Partially soluble − | –
O=S(=O)([O-])c1cc(Nc2nc(CCO)nc(Nc3ccccc3)n2)ccc1/C=C/c1ccc(Nc2nc(NCO)nc(Nc3ccccc3)n2)cc1S(=O)(=O)[O-].[Na+].[Na+] [FB 85] | Partially soluble − | –
CCCN(CCC)c1nc(Nc2ccccc2)nc(Nc2ccc(/C=C/c3ccc(Cc4nc(Cc5ccccc5)nc(N(OCC)OCC)n4)cc3S(=O)(=O)[O-])c(S(=O)(=O)[O-])c2)n1.[Na+].[Na+] [FB 113] | Partially soluble − | –
O=S(=O)([O-])c1ccccc1C=Cc1ccc(-c2ccc(C=Cc3ccccc3S(=O)(=O)[O-])cc2)cc1.[Na+].[Na+] [FB 351] | Soluble | fully soluble; also recorded: good solubility
